In patent publication US10238688B2, “Combination therapies for bladder cancer” (GENEDIA BIOTECH CO. LTD., priority 2015, dated 2019):

Legend:
[1] = tested on: Hypoxia pathway; assay: Cignal Finder dual-luciferase pathway reporter, Hypoxia; assay type: cell-based, human; design: key to Relative activity, Hypoxia reporter: firefly/renilla ratio, background (negative control) subtracted; conditions: for Relative activity, Hypoxia reporter: luc/Renluc relative to negative control reporter, single drug at 4 folds vs EH/Ci/Mi combination
Protocol: (§1) The pathway analysis was performed with Qiagen's Cignal Finder Pathway Reporter Array systems according to the manufacturer's instructions. The pathway-focused dual-luciferase reporter construct was a mixture of an inducible transcription factor responsive firefly luciferase reporter and constitutively expressing renilla construct. Transcriptional response element (TRE) sequence response elements to each specific transcriptional factor triggered by the different signaling pathways are positioned before the TATA box of firefly luciferase reporter gene. The extent of activity of the reporter reflects the level of activity of the particular signaling pathway. CMV controlled renilla expression vector is co-transfected into the cell as an internal control. Non-inducible reporter construct that lacks the transcriptional factor binding sequence and could not be induced by any transcription factors is used as a negative control. Cells transfected with CMV directed firefly luciferase reporter gene serve as a positive control. Briefly, cells seeded in 6-well plates were transfected with Cignal finder pathway arrays according to the manufacturer's instructions (Qiagen). Then cells were seeded onto 96-well plates. Ci (6000 ng/mL), Mi (800 ng/mL), or EH (1000 ng/mL) and Ci/Mi/EH combination (Ci, 1500 ng/mL, Mi, 800 ng/mL and EH, 1000 ng/m L) were then added to the cells 24 h post-transfection. After 6 h of incubation with the different drugs at 37° C., cells were lysed and a dual luciferase assay (for firefly and renilla luciferase) was performed using a PromegaGloMax 20/20 illuminometer. The firefly luciferase activities were normalized over the renilla luciferase activities after background activity determined by luciferase activities of negative controls was subtracted. A triple test of cell survival under these drug doses was also performed by MTT assay following 18 h incubation at 37° C. […]

[2] = tested on: nine cancer-associated signaling pathways; assay: Pearson correlation of collective drug-triggered pathway activities (single drug versus EH/Ci/Mi regimen)
Source text: To calculate the correlation coefficients between the two cell lines, the R language statistics function “cor{stats}” was used to generate the correlation matrix between multiple cell lines.
This example then determined the correlation coefficient between the overall activity of these nine pathways and the chemoresistance state of these five cell lines. […] The overall state of activity of these pathways in each cell line are summarized (FIG. 4E) and the correlation coefficient of each pair of cell lines is calculated (FIG. 4F).

[3] = tested on: SCaBER; assay: MTT cell survival / IC50, SCaBER squamous carcinoma cells; assay type: cell-based, human; conditions: for Cell survival (%): Table S3, ng/ml: Pi 40, Pa 160, EH 250, Ci 1500, Mi 200, 1=Ci/Mi, 2=EH/Ci/Mi, 3=Pa/Ci/Mi, 4=Pi/Ci/Mi; for Single drug 4X Cell Survival (%): ng/ml: EH 1000, Ci 6000, Mi 800, Pi 160, Pa 640, Ge 20, EH/Ci/Mi regimen
Protocol: The clinical grade of the chemotherapeutics (NCI Dictionary of Cancer Terms) was provided by the First Affiliated Hospital of Harbin Medical University: Pirarubicin (Pi, Wanle, Shenzhen), Paclitaxel (Pa, Taiji, Sichuan), Adriamycin (Ad, Pfizer, Jiangsu), Epirubicin Hydrochloride (EH, Haizheng, Zhejiang), Hydroxycamptothecin (Hy, Lishizhen, Hubei), Cisplatin (Ci, Haosen, Jiangsu), Gemcitabine (Ge, Haosen, Jiangsu) and Mitomycin (Mi, Haizheng, Zhejiang). The drug induced cell death was determined by a thiazolyl […] (MTT, 490 nm reading) based cell proliferation assay in the cultured cells following treatment by various concentrations of drugs for 72 hours. The relative chemoresistance to each drug of all cell lines was calculated with the lowest IC50 as a reference. The overall chemoresistance of each cell line was described as “chemoresistance index”, the numerator of the total relative IC50 to all the drugs over the number of drugs to rank the overall resistance state of each cell line to the six chemotherapeutics collectively.
The relative IC50 (fold) of each drug of all nine cell lines was normalized to the lowest IC50 in the most sensitive cell line (FIG. 2G), to describe the single drug resistance of cell lines. The overall chemoresistance of each cell line, a “chemoresistance index” (the numerator of the total relative IC50 over the number of drugs) (FIG. 2G) were calculated to rank the overall resistance state of each cell line to this six chemotherapeutics.

[4] = tested on: Cell Cycle/pRb-E2F pathway; assay: Cignal Finder dual-luciferase pathway reporter, Cell Cycle/pRb-E2F; assay type: cell-based, human; design: key to Relative activity, Cell Cycle/pRb-E2F reporter: firefly/renilla ratio, background (negative control) subtracted; conditions: for Relative activity, Cell Cycle/pRb-E2F reporter: luc/Renluc relative to negative control reporter, single drug at 4 folds vs EH/Ci/Mi combination
Protocol: as §1

[5] = tested on: DNA Damage response pathway; assay: Cignal Finder dual-luciferase pathway reporter, DNA Damage response (5637, Biu87, UM-UC-3, H-bc, SV-HUC-1); assay type: cell-based, human; design: key to Relative activity, DNA Damage reporter: firefly/renilla ratio, background (negative control) subtracted; conditions: for Relative activity, DNA Damage reporter: luc/Renluc relative to negative control reporter, single drug at 4 folds vs EH/Ci/Mi combination
Protocol: as §1, with “Ci (6000 ng/mL), Mi (800 ng/mL), or EH (1000 ng/mL) and Ci/Mi/EH combination (Ci, 1500 ng/mL, Mi, 800 ng/mL and EH, 1000 ng/m L) were then added to the cells 24 h post-transfection.” left out

## N.N.[Cl][Pt][Cl] [Ci, (SP-4-2)-diamminedichloroplatinum(II)]
[1]; 5637 cells
  relative drug trigged pathway activity over the no-drug level, Hypoxia: 1.64 fold
  Relative activity, Hypoxia reporter: 37.36
[1]; Biu87 cells
  digitalized pathway activity, Hypoxia: 0 (null (0) if neither of the above holds)
  relative drug trigged pathway activity over the no-drug level, Hypoxia: 1.32 fold
  Relative activity, Hypoxia reporter: 10.01
[1]; H-bc cells
  relative drug trigged pathway activity over the no-drug level, Hypoxia: 0.39 fold
  Relative activity, Hypoxia reporter: 49.11
[1]; SV-HUC-1 cells
  digitalized pathway activity, Hypoxia: 0 (null (0) if neither of the above holds)
  relative drug trigged pathway activity over the no-drug level, Hypoxia: 1.19 fold
  Relative activity, Hypoxia reporter: 30.20
[1]; UM-UC-3 cells
  digitalized pathway activity, Hypoxia: 0 (null (0) if neither of the above holds)
  Relative activity, Hypoxia reporter: 41.68
[1]; Um-Uc-3 cells
  relative drug trigged pathway activity over the no-drug level, Hypoxia: 0.66 fold
[2]; 5637 cells
  Correlation coefficients versus EH/Ci/Mi: 0.9177
[2]; Biu87 cells
  Correlation coefficients versus EH/Ci/Mi: 0.3273
[2]; H-bc cells
  Correlation coefficients versus EH/Ci/Mi: 0.6934
[2]; SV-HUC-1 cells
  Correlation coefficients versus EH/Ci/Mi: 1
[2]; UmUc3 cells
  Correlation coefficients versus EH/Ci/Mi: −0.7559
[3]
  Cell survival (%): 22.05%
  Single drug 4X Cell Survival (%): 5.58%
[4]; 5637 cells
  relative drug trigged pathway activity over the no-drug level, Cell Cycle/pRb-E2F: 1.95 fold
  Relative activity, Cell Cycle/pRb-E2F reporter: 1.77
[4]; Biu87 cells
  digitalized pathway activity, Cell Cycle/pRb-E2F: 0 (null (0) if neither of the above holds)
  relative drug trigged pathway activity over the no-drug level, Cell Cycle/pRb-E2F: 0.55 fold
  Relative activity, Cell Cycle/pRb-E2F reporter: 0.31
[4]; H-bc cells
  digitalized pathway activity, Cell Cycle/pRb-E2F: 0 (null (0) if neither of the above holds)
  relative drug trigged pathway activity over the no-drug level, Cell Cycle/pRb-E2F: 0.51 fold
  Relative activity, Cell Cycle/pRb-E2F reporter: 5.86
[4]; SV-HUC-1 cells
  relative drug trigged pathway activity over the no-drug level, Cell Cycle/pRb-E2F: 1.71 fold
  Relative activity, Cell Cycle/pRb-E2F reporter: 8.40
[4]; UM-UC-3 cells
  Relative activity, Cell Cycle/pRb-E2F reporter: 2.29
[4]; Um-Uc-3 cells
  relative drug trigged pathway activity over the no-drug level, Cell Cycle/pRb-E2F: 0.39 fold
[5]; 5637 cells
  relative drug trigged pathway activity over the no-drug level, DNA Damage: 2.17 fold
  Relative activity, DNA Damage reporter: 0.48
[5]; Biu87 cells
  digitalized pathway activity, DNA Damage: 0 (null (0) if neither of the above holds)
  relative drug trigged pathway activity over the no-drug level, DNA Damage: 0.63 fold
  Relative activity, DNA Damage reporter: 0.94
[5]; H-bc cells
  relative drug trigged pathway activity over the no-drug level, DNA Damage: 1.69 fold
  Relative activity, DNA Damage reporter: 4.19
[5]; SV-HUC-1 cells
  relative drug trigged pathway activity over the no-drug level, DNA Damage: 1.54 fold
  Relative activity, DNA Damage reporter: 3.70
[5]; UM-UC-3 cells
  digitalized pathway activity, DNA Damage: 0 (null (0) if neither of the above holds)
  Relative activity, DNA Damage reporter: 2.38
[5]; Um-Uc-3 cells
  relative drug trigged pathway activity over the no-drug level, DNA Damage: 0.68 fold

## COc1cccc2c1C(=O)c1c(O)c3c(c(O)c1C2=O)C[C@@](O)(C(=O)CO)C[C@@H]3[C@@H]1C[C@H](N)[C@@H](O)[C@H](C)O1 [EH, (8R,10S)-10-((2S,4S,5R,6S)-4-amino-5-hydroxy-6-methyltetrahydro-2H-pyran-2-yl)-6,8,11-trihydroxy-8-(2-hydroxyacetyl)-1-methoxy-7,8,9,10-tetrahydrotetracene-5,12-dione]
[1]; 5637 cells
  relative drug trigged pathway activity over the no-drug level, Hypoxia: 2.27 fold
  Relative activity, Hypoxia reporter: 51.46
[1]; Biu87 cells
  relative drug trigged pathway activity over the no-drug level, Hypoxia: 2.26 fold
  Relative activity, Hypoxia reporter: 17.13
[1]; H-bc cells
  relative drug trigged pathway activity over the no-drug level, Hypoxia: 1.72 fold
  Relative activity, Hypoxia reporter: 57.60
[1]; SV-HUC-1 cells
  relative drug trigged pathway activity over the no-drug level, Hypoxia: 1.74 fold
  Relative activity, Hypoxia reporter: 44.00
[1]; UM-UC-3 cells
  digitalized pathway activity, Hypoxia: 0 (null (0) if neither of the above holds)
  Relative activity, Hypoxia reporter: 73.93
[1]; Um-Uc-3 cells
  relative drug trigged pathway activity over the no-drug level, Hypoxia: 1.18 fold
[2]; 5637 cells
  Correlation coefficients versus EH/Ci/Mi: 0.9177
[2]; Biu87 cells
  Correlation coefficients versus EH/Ci/Mi: 0.982
[2]; H-bc cells
  Correlation coefficients versus EH/Ci/Mi: 0.9707
[2]; SV-HUC-1 cells
  Correlation coefficients versus EH/Ci/Mi: 0.9449
[2]; UmUc3 cells
  Correlation coefficients versus EH/Ci/Mi: 0.3712
[3]
  Cell survival (%): 38.31%
  Single drug 4X Cell Survival (%): 6.67%
[4]; 5637 cells
  relative drug trigged pathway activity over the no-drug level, Cell Cycle/pRb-E2F: 5.15 fold
  Relative activity, Cell Cycle/pRb-E2F reporter: 4.67
[4]; Biu87 cells
  relative drug trigged pathway activity over the no-drug level, Cell Cycle/pRb-E2F: 3.95 fold
  Relative activity, Cell Cycle/pRb-E2F reporter: 2.24
[4]; H-bc cells
  digitalized pathway activity, Cell Cycle/pRb-E2F: 0 (null (0) if neither of the above holds)
  relative drug trigged pathway activity over the no-drug level, Cell Cycle/pRb-E2F: 1.47 fold
  Relative activity, Cell Cycle/pRb-E2F reporter: 4.44
[4]; SV-HUC-1 cells
  relative drug trigged pathway activity over the no-drug level, Cell Cycle/pRb-E2F: 2.45 fold
  Relative activity, Cell Cycle/pRb-E2F reporter: 12.00
[4]; UM-UC-3 cells
  Relative activity, Cell Cycle/pRb-E2F reporter: 17.25
[4]; Um-Uc-3 cells
  relative drug trigged pathway activity over the no-drug level, Cell Cycle/pRb-E2F: 2.91 fold
[5]; 5637 cells
  relative drug trigged pathway activity over the no-drug level, DNA Damage: 3.42 fold
  Relative activity, DNA Damage reporter: 0.75
[5]; Biu87 cells
  digitalized pathway activity, DNA Damage: 0 (null (0) if neither of the above holds)
  relative drug trigged pathway activity over the no-drug level, DNA Damage: 1.04 fold
  Relative activity, DNA Damage reporter: 1.58
[5]; H-bc cells
  relative drug trigged pathway activity over the no-drug level, DNA Damage: 6.13 fold
  Relative activity, DNA Damage reporter: 3.99
[5]; SV-HUC-1 cells
  relative drug trigged pathway activity over the no-drug level, DNA Damage: 2.5 fold
  Relative activity, DNA Damage reporter: 6.00
[5]; UM-UC-3 cells
  Relative activity, DNA Damage reporter: 5.96
[5]; Um-Uc-3 cells
  relative drug trigged pathway activity over the no-drug level, DNA Damage: 1.71 fold
